Assay results from a compilation of properties of binary mixtures (doi:10.1016/j.molliq.2021.117163).

Test: xn = mol fraction of the nth substance listed
Conditions: 298.15 K, 100 kPa

| viscosity (x2 = 0) [mPa·s] | viscosity (x2 = 0.05) [mPa·s] | viscosity (x2 = 0.1) [mPa·s] | viscosity (x2 = 0.3) [mPa·s] | viscosity (x2 = 0.4) [mPa·s] | viscosity (x2 = 0.5) [mPa·s] | viscosity (x2 = 0.6) [mPa·s] | viscosity (x2 = 0.7) [mPa·s] | viscosity (x2 = 0.8) [mPa·s] | viscosity (x2 = 0.9) [mPa·s] | viscosity (x1 = 1) [mPa·s] | Structure (SMILES) |
| --- | --- | --- | --- | --- | --- | --- | --- | --- | --- | --- | --- |
| 2.7 | 3.6 | 4.4 | 10 | 15 | 22 | 31.4 | 44.5 | 63.5 | 81.3 |  | CC1COC(=O)O1 (stereo unspecified) + CCCC[n+]1ccn(C)c1.F[B-](F)(F)F |
|  |  |  |  |  |  |  |  |  |  | 107.2 | CCCC[n+]1ccn(C)c1.F[B-](F)(F)F + CC1COC(=O)O1 |
